Source: PMC7344659, “Bioactivity of Spongian Diterpenoid Scaffolds from the Antarctic Sponge Dendrilla antarctica” (Marine Drugs, 2020)
Like-named read-outs stand apart in the source and are kept apart here.

Columns and labels:
[1] = test system: primary human hepatocytes; assay: Cytotoxicity towards uninfected primary human hepatocytes; format: cell-based; settings: for inhibition at 5 µg/mL: Hepatocyte, 5 μg/mL, uninfected primary human hepatocytes, % (Standard Deviation), n = 3, read-out: Plasmodium falciparum Inhibition at 5 μg/mL Uninfected PHHs
Protocol: (§1) The full suite of Dendrilla antarctica-derived compounds, with the exception of darwinolide (1) and dendrillin D (12) owing to mass limitations, were tested against Leishmania donovani infected macrophages, liver-stage sporozoites in primary human hepatocytes, and against MRSA biofilm. Cytotoxicity was evaluated using the mammalian J774A.1 cell line in L. donovani-active compounds, while primary human hepatocytes were evaluated for malaria-active compounds.
(§2) For the Plasmodium falciparum infected liver cells, screening was conducted at a fixed concentration of 5 µg/mL for each compound, and activities representing 60% inhibition and 100% inhibition are reported in comparison with the positive control primaquine. […] Aplysulphurin (2) at ≤13 μM was also active at the highest level.
(§3) The liver-stage Plasmodium falciparum assay was conducted as previously reported.

Plasmodium falciparum = assay: Liver-stage Plasmodium falciparum assay in primary human hepatocytes; format: cell-based; settings: for inhibition at 5 µg/mL: Plasmodium falciparum, Hepatocyte, 5 μg/mL, infected primary human hepatocytes, % (Standard Deviation), n = 3, read-out: Plasmodium falciparum Inhibition at 5 μg/mL Infected PHHs
Protocol: as §1, §2, §3

[2] = J774A.1-cell cytotoxicity assay (uninfected macrophage); format: cell-based; settings: mouse, J774A.1 macrophage cells (uninfected); Table 3; unit not given (μM in Table 2); read-out: J774 Cytotoxiciy
Protocol: as §1
(§4) The Leishmania donovani cell line infected macrophage assay and cytotoxicity screen were conducted as previously described.

J774A.1 macrophages [3] = assay: as above; format: cell-based; settings: Mus musculus, J774.A1; cytotoxicity, uninfected J774A.1 macrophages; single point determination; read-out: Leishmania donovani IC50 Uninfected Macrophage
Protocol: as §1, §4

MRSA biofilm = MRSA biofilm eradication assay; format: cell-based, methicillin-resistant Staphylococcus aureus; settings: for inhibition at 25 µg/mL / inhibition at 50 µg/mL / inhibition at 100 µg/mL: Staphylococcus aureus, MRSA, % (Std. Dev.), n = 6; for inhibition at 25 µg/mL: 25 μg/mL; for inhibition at 50 µg/mL: 50 μg/mL; for inhibition at 100 µg/mL: 100 μg/mL; for concentration at which activity against MRSA biofilm was exhibited: eradication level not given
Protocol: The MRSA biofilm assay was carried out at concentrations of 100, 50, and 25 µg/mL for each compound, and activities representing 50% and 90% eradication are reported.
The MRSA biofilm assay was conducted as previously reported.

Leishmania donovani [4] = assay: Leishmania donovani infected macrophage assay; format: cell-based
Protocol: as §1
The results from the Leishmania donovani assay (Table 2) indicate activity commensurate with the positive control and current standard of care, miltefosine (2.9 µM) is observed in aplysulphurin (2, 3.1 μM), tetrahydroaplysulphurin-1 (4, 3.5 μM), dendrillin B (10, 3.5 μM), 8-ketodihydrogracilin (13, 4.5 μM), and triol 15 (4.5 μM).
as §4

J774A.1 macrophages [5] = test system: J774A.1 macrophages; parameters: method as in PMID 32281798; settings: cytotoxicity, uninfected J774A.1 macrophages; single point determination; ref [15]; read-out: Leishmania donovani IC50 Uninfected Macrophage; cited from earlier work
Leishmania donovani [6] = test system: Leishmania donovani; parameters: method as in PMID 32281798; settings: J774A.1 macrophages, single point determination, ref [15], read-out: Leishmania donovani IC50 Infected Macrophage, cited from earlier work
[7] = Leishmania donovani, J774.A1, J774A.1 macrophages, single point determination, read-out: Leishmania donovani IC50 Infected Macrophage
[8] = Leishmania donovani, Macrophage, Table 3, unit not given (μM in Table 2), read-out: Pathogen Activity, Leishmania donovani

SMILES	inhibition at 5 µg/mL [1]	inhibition at 5 µg/mL (Plasmodium falciparum)	IC50 [2]	IC50 (J774A.1 macrophages [3])	inhibition at 25 µg/mL (MRSA biofilm)	inhibition at 50 µg/mL (MRSA biofilm)	inhibition at 100 µg/mL (MRSA biofilm)	Pathogen Activity, MRSA Biofilm (MRSA biofilm; Table 3, no unit printed there (58 μM))	concentration achieving 50% eradication of MRSA biofilm (MRSA biofilm; tested at 100, 50 and 25 µg/mL, 50% eradication)	concentration at which activity against MRSA biofilm was exhibited (MRSA biofilm; tested at 100, 50 and 25 µg/mL)	IC50 (Leishmania donovani [4]; [7])	IC50 (Leishmania donovani [4]; [8])	Selectivity Index (SI), Leishmania donovani (Leishmania donovani [4]; Table 3, SI = J774 IC50/pathogen IC50)	IC50 (J774A.1 macrophages [5])	IC50 (Leishmania donovani [6])	cytotoxicity towards uninfected primary human hepatocytes (in words) ([1]; 5 µg/mL screen)	concentration with 100% inhibition against P. falciparum infected liver cells (Plasmodium falciparum; screen at fixed 5 µg/mL, 100% inhibition level (highest level))	IC50 (Leishmania donovani [6]; listed as 2)	IC50 (Leishmania donovani [4]; J774A.1 macrophages, single point determination, read-out: Leishmania donovani IC50 Infected Macrophage)
CCC1=C(C=O)[C@H](C(=O)OC)CC[C@@H]1[C@@]1(C)CCCC(C)(C)C1 (relative stereo) [Dendrillin C (11), dendrillin C]	3.4%	1.3%	> 160 µM	> 160 µM	84%	97.8%	99.2%	78	25 µg/mL	50 µg/mL	> 31 µM								
CC(=O)OC1OC(OC(C)=O)C2C(=O)C(C3(C)CCCC(C)(C)C3)CCC12 (stereo not drawn) [8-Ketodihydrogracilin (13), 8-ketodihydrogracilin]	2.3%	0%	22 µM	22 µM	5.7%	97.7%	99.7%			50 µg/mL	4.5 µM	4.5 µM	5						
C/C=C1/[C@@H]2[C@@H](OC(C)=O)O[C@@H](OC(C)=O)[C@@H]2CC[C@@H]1[C@@]1(C)CCCC(C)(C)C1 [9,11-Dihydrogracilin A (3), 9,11-dihydrogracilin A]	1.1%	0%			0%	29.1%	12.7%							23 µM	9.1 µM				
CC(=O)O[C@@H]1O[C@H]2OC(=O)[C@H](C)c3c([C@@]4(C)CCCC(C)(C)C4)ccc1c32 [Aplysulphurin (2), aplysulphurin]	7.6%	100%			6.5%	29.4%	21.1%							12 µM	3.1 µM	no discernable cytotoxicity	≤ 13 µM	< 10 µM	
C[C@H]1C(=O)O[C@@H]2OC[C@@H]3CCC([C@@]4(C)CCCC(C)(C)C4)=C1[C@@H]32 [Cadlinolide C (8), cadlinolide C]	0%	0%		> 160 µM	2.6%	35%	85.4%				16 µM								
CC(=O)O[C@@H]1O[C@H](OC(C)=O)[C@@H]2[C@H]1CC[C@H](/C(C)=C1/CCCC1(C)C)C2(C)C [Compound 7]	0.7%	39.3%		18 µM	3.9%	28.7%	2.9%				14 µM								
CC(=O)OC1OC(OC(C)=O)C2C1CCC(C1(C)CCCC(C)(C)C1)C21OC1C (stereo not drawn) [Dendrillin A (9), dendrillin A]	2.9%	4.3%		9 µM	0%	0%	0%				6 µM								
COC(=O)C(C)c1c(C2(C)CCCC(C)(C)C2)ccc2c1C(O)OC2=O (stereo not drawn) [Dendrillin B (10), dendrillin B]	0%	0%	> 140 µM	> 140 µM	37%	19.4%	90.7%					3.5 µM							< 10 µM
